Laboratory results taken from ChEMBL document CHEMBL1141668, “Synthesis and biological activity of imidazopyridine anticoccidial agents: Part II” (Eur J Med Chem, 2008).
pIC50: −log10 of the molar value.

Key:
Eimeria tenella [1] = assay: Anticoccidial activity against Eimeria tenella in chickens assessed as reduction of oocysts at 12.5 ppm measured after 8 days by ExMAC assay relative to untreated control; format: functional; set-up: scale not given: the % may be the effect or the level left
Eimeria mitis [2] = assay: Anticoccidial activity against Eimeria mitis in chickens assessed as reduction of oocysts at 25 ppm measured after 8 days by ExMAC assay relative to untreated control; format: functional; set-up: scale not given: the % may be the effect or the level left
Eimeria acervulina [3] = assay: Anticoccidial activity against Eimeria acervulina in chickens assessed as reduction of oocysts at 25 ppm measured after 8 days by ExMAC assay relative to untreated control; format: functional; set-up: scale not given: the % may be the effect or the level left
Eimeria mitis [4] = assay: Anticoccidial activity against Eimeria mitis in chickens assessed as reduction of oocysts at 12.5 ppm measured after 8 days by ExMAC assay relative to untreated control; format: functional; set-up: scale not given: the % may be the effect or the level left
Eimeria maxima [5] = assay: Anticoccidial activity against Eimeria maxima in chickens assessed as reduction of oocysts at 6.25 ppm measured after 8 days by ExMAC assay relative to untreated control; format: functional; set-up: scale not given: the % may be the effect or the level left
Eimeria acervulina [6] = assay: Anticoccidial activity against Eimeria acervulina in chickens assessed as reduction of oocysts at 12.5 ppm measured after 8 days by ExMAC assay relative to untreated control; format: functional; set-up: scale not given: the % may be the effect or the level left
Eimeria maxima [7] = assay: Anticoccidial activity against Eimeria maxima in chickens assessed as reduction of oocysts at 25 ppm measured after 8 days by ExMAC assay relative to untreated control; format: functional; set-up: scale not given: the % may be the effect or the level left
Eimeria tenella [8] = assay: Anticoccidial activity against Eimeria tenella in chickens assessed as reduction of oocysts at 25 ppm measured after 8 days by ExMAC assay relative to untreated control; format: functional; set-up: scale not given: the % may be the effect or the level left
Eimeria acervulina [9] = assay: Anticoccidial activity against Eimeria acervulina in chickens assessed as reduction of oocysts at 6.25 ppm measured after 8 days by ExMAC assay relative to untreated control; format: functional; set-up: scale not given: the % may be the effect or the level left
Eimeria mitis [10] = assay: Anticoccidial activity against Eimeria mitis in chickens assessed as reduction of oocysts at 6.25 ppm measured after 8 days by ExMAC assay relative to untreated control; format: functional; set-up: scale not given: the % may be the effect or the level left
Eimeria tenella [11] = assay: Anticoccidial activity against Eimeria tenella in chickens assessed as reduction of oocysts at 6.25 ppm measured after 8 days by ExMAC assay relative to untreated control; format: functional; set-up: scale not given: the % may be the effect or the level left
Eimeria maxima [12] = assay: Anticoccidial activity against Eimeria maxima in chickens assessed as reduction of oocysts at 12.5 ppm measured after 8 days by ExMAC assay relative to untreated control; format: functional; set-up: scale not given: the % may be the effect or the level left
[13] = molecular target: cGMP-dependent protein kinase (Eimeria tenella, UniProt Q8MMZ8); assay: Inhibition of Eimeria tenella cGMP-dependent protein kinase
Chain of cGMP-dependent protein kinase (Q8MMZ8 whole entry): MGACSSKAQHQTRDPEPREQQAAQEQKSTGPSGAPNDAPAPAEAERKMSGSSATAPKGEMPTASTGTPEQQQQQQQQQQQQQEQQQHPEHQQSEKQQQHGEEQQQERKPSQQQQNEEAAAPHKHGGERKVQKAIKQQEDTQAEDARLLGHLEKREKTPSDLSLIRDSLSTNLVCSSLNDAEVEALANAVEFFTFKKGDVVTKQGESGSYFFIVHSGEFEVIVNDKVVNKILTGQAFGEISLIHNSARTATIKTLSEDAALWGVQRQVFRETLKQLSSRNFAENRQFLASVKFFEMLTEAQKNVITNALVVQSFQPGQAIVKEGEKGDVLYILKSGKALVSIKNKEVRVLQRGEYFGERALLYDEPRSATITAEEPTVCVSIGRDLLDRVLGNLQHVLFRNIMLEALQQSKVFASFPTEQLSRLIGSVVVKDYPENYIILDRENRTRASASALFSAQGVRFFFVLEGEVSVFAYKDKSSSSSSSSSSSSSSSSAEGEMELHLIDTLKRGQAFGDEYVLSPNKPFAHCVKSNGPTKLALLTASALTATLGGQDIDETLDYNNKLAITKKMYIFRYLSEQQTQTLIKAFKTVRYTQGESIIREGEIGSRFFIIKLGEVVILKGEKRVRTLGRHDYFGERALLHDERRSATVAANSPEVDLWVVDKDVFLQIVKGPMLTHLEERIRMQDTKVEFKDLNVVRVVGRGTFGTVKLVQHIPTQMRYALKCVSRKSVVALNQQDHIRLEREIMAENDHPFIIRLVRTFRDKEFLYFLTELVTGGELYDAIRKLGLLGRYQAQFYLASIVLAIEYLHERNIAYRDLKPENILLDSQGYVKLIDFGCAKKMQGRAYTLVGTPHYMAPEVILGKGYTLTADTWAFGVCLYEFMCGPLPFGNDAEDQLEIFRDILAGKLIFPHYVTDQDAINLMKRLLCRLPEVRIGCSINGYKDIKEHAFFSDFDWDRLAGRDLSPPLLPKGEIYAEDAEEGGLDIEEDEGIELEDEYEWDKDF

Eimeria tenella [14] = assay: Anticoccidial activity against Eimeria tenella in chickens assessed as reduction of oocysts at 8 ppm measured after 8 days by ExMAC assay relative to untreated control; format: functional; set-up: scale not given: the % may be the effect or the level left
Eimeria mitis [15] = assay: Anticoccidial activity against Eimeria mitis in chickens assessed as reduction of oocysts at 8 ppm measured after 8 days by ExMAC assay relative to untreated control; format: functional; set-up: scale not given: the % may be the effect or the level left
Eimeria acervulina [16] = assay: Anticoccidial activity against Eimeria acervulina in chickens assessed as reduction of oocysts at 8 ppm measured after 8 days by ExMAC assay relative to untreated control; format: functional; set-up: scale not given: the % may be the effect or the level left
Eimeria maxima [17] = assay: Anticoccidial activity against Eimeria maxima in chickens assessed as reduction of oocysts at 8 ppm measured after 8 days by ExMAC assay relative to untreated control; format: functional; set-up: scale not given: the % may be the effect or the level left

Row | SMILES | Activity (Eimeria tenella [1]) [%] | Activity (Eimeria mitis [2]) [%] | Activity (Eimeria acervulina [3]) [%] | Activity (Eimeria mitis [4]) [%] | Activity (Eimeria maxima [5]) [%] | Activity (Eimeria acervulina [6]) [%] | Activity (Eimeria maxima [7]) [%] | Activity (Eimeria tenella [8]) [%] | Activity (Eimeria acervulina [9]) [%] | Activity (Eimeria mitis [10]) [%] | Activity (Eimeria tenella [11]) [%] | Activity (Eimeria maxima [12]) [%] | pIC50 [13] | Activity (Eimeria tenella [14]) [%] | Activity (Eimeria mitis [15]) [%] | Activity (Eimeria acervulina [16]) [%] | Activity (Eimeria maxima [17]) [%]
1 | CN(C)Cc1ccn2c(-c3ccnc(N)n3)c(-c3ccc(F)cc3)nc2c1 | 80 | 80 | 80 | 80 | <50 | 80 | 80 | 80 | 80 | <50 | 80 | 80 |  |  |  |  | 
2 | CN1CCN(c2ccn3c(-c4ccnc(N)n4)c(-c4ccc(F)cc4)nc3c2)CC1 | 80 | 80 | <50 | 50 | <50 | <50 | 100 | 80 | <50 | 50 | <50 | <50 | 9.64 |  |  |  | 
3 | CCC(c1ccn2c(-c3ccnc(N)n3)c(-c3ccc(F)cc3)nc2c1)N(C)C (centres undefined) | 100 |  |  | 100 |  | 100 |  |  |  |  |  | 100 | 9.89 | 50 | <50 | 80 | 50
4 | CN(C)CCCc1ccn2c(-c3ccnc(N)n3)c(-c3ccc(F)cc3)nc2c1 | 80 | 80 | 80 | <50 | <50 | 80 | 100 | 80 | <50 | <50 | <50 | <50 | 9.57 |  |  |  | 
5 | CCCC(c1ccn2c(-c3ccnc(N)n3)c(-c3ccc(F)cc3)nc2c1)N(C)C (centres undefined) | <50 | 100 | 100 | <50 | 100 | 80 | 100 | 100 | 80 | <50 | <50 | <50 | 10.19 |  |  |  | 
6 | Nc1nccc(-c2c(-c3ccc(F)cc3)nc3cc(C4CCN(CCO)CC4)ccn23)n1 | 99 | <50 | 99 | 80 | <50 | 50 | 50 | 99 | <50 | <50 | 99 | 80 | 10.36 |  |  |  | 
7 | CC(C)CN1CCC(c2ccn3c(-c4ccnc(N)n4)c(-c4ccc(F)cc4)nc3c2)CC1 | 100 | 80 | 100 | 80 | <50 | 80 | 80 | 80 | 80 | <50 | 50 | 100 | 9.92 |  |  |  | 
8 | CN(C)CC(C)(C)c1ccn2c(-c3ccnc(N)n3)c(-c3ccc(F)cc3)nc2c1 | 80 | 80 | 80 | <50 | <50 | 80 | <50 | 100 | <50 | <50 | <50 | <50 | 9.70 |  |  |  | 
